# According to patent US10722514B2 (FLX Bio, Inc., priority 2017, dated 2020):
# Molecular target: T1, recombinant full-length USP7 (Homo sapiens, UniProt Q93009)
# T1 construct: A 25 μl reaction volume containing recombinant full-length USP7 (62 pM)
# Experiment: USP7-mediated ubiquitin-rhodamine cleavage assay
# Format: biochemical
# Conditions: recombinant full-length USP7 62 pM; ubiquitin-rhodamine 100 nM; 30-minute incubation with compound, 1 hour reaction at room temperature; read-out: Potency: USP7 IC50
# Summary of the method: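 USP7 (62 pM) in 20 mM HEPES pH 7.3, 150 mM NaCl, 1 mM TCEP, 125 μg/ml BSA was preincubated with compound (1% DMSO) for 30 min at room temperature. Ubiquitin-rhodamine (100 nM final) was then added for 1 hour, the reaction stopped with acetic acid, and fluorescence read; IC50 from 4-parameter fit.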
# T1 sequence (Q93009 whole entry): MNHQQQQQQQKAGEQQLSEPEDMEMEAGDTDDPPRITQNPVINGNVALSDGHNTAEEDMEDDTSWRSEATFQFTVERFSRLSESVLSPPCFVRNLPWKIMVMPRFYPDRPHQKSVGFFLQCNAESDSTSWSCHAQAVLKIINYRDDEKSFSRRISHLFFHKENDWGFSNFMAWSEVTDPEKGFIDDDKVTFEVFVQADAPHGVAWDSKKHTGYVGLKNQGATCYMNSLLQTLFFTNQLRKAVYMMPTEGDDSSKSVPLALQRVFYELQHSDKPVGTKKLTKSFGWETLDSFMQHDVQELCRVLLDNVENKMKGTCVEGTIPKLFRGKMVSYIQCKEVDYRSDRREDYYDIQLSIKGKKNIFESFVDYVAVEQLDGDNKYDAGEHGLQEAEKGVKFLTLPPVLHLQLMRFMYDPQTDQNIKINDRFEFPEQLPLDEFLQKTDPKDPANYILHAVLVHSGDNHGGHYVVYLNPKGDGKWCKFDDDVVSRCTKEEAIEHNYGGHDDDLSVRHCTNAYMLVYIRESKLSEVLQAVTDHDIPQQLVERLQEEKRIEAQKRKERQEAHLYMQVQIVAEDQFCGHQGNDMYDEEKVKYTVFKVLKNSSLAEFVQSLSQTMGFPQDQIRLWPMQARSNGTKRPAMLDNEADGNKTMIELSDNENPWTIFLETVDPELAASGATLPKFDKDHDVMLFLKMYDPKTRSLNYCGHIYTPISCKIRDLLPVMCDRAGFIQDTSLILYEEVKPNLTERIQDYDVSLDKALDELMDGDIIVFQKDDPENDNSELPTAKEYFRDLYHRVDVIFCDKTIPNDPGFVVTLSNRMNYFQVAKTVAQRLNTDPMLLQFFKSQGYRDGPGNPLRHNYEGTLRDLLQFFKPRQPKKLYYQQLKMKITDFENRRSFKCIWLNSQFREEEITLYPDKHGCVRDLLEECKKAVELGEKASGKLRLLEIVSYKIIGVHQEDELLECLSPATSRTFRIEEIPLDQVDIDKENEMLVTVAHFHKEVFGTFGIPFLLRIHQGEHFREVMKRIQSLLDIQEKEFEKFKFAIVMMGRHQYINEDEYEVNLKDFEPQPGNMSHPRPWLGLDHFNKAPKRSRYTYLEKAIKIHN
row,SMILES,IC50
1,"Cc1cc(F)cc(-c2ccnc3cc(CO)sc23)c1O[C@H]1CCCNC1 [Example 238, (S)-(7-(5-Fluoro-3-methyl-2-(piperidin-3-yloxy)phenyl)thieno[3,2-b]pyridin-2-yl)methanol]",10000 to 30000 nM
2,"Cc1cc(Cl)cc(-c2ccnc3cc(CN4C(=O)CCC4=O)sc23)c1O[C@H]1C[C@H]2CC[C@@H](C1)N2 [Example 214, 1-((7-(2-(((1R,3r,5S)-8-Azabicyclo[3.2.1]octan-3-yl)oxy)-5-chloro-3-methylphenyl)thieno[3,2-b]pyridin-2-yl)methyl)pyrrolidine-2,5-dione]",< 1000 nM
3,"Cc1cc(Cl)cc(-c2ccnc3cc([C@H](C)N4C(=O)C5CC5C4=O)sc23)c1O[C@H]1CCCNC1 (stereo partly drawn) [Example 288, 3-[(1S)-1-[7-[5-chloro-3-methyl-2-[[(3S)-3-piperidyl]oxy]phenyl]thieno[3,2-b]pyridin-2-yl]ethyl]-3-azabicyclo[3.1.0]hexane-2,4-dione; 2,2,2-trifluoroacetic acid]",< 1000 nM
4,"Cc1cc(Cl)cc(-c2ccnc3cc(CN4C(=O)CCC4C(F)(F)F)sc23)c1OC1CCNCC1 (centres unmarked) [Example 201, 1-((7-(5-Chloro-3-methyl-2-(piperidin-4-yloxy)phenyl)thieno[3,2-b]pyridin-2-yl)methyl)-5-(trifluoromethyl)pyrrolidin-2-one]",1000 to 10000 nM
5,"Cc1cc(Cl)cc(-c2ccnc3cc(CN4C(=O)C5C(C4=O)C5(C)C)sc23)c1O[C@H]1CCCN[C@@H]1C (stereo partly drawn) [Example 364, 3-[[7-[5-chloro-3-methyl-2-[[(2R,3S)-2-methyl-3-piperidyl]oxy]phenyl]thieno[3,2-b]pyridin-2-yl]methyl]-6,6-dimethyl-3-azabicyclo[3.1.0]hexane-2,4-dione; 2,2,2-trifluoroacetic acid]",< 1000 nM
6,"Cc1cc(Cl)cc(-c2ccnc3cc(CN4C(=O)CCC4=O)sc23)c1O[C@@H]1CN(C(C)C)C[C@@H]1F [Example 323, 1-[[7-[5-chloro-2-[(3R,4S)-4-fluoro-1-isopropyl-pyrrolidin-3-yl]oxy-3-methyl-phenyl]thieno[3,2-b]pyridin-2-yl]methyl]pyrrolidine-2,5-dione]",< 1000 nM
7,"Cc1cc(Cl)cc(-c2ccnc3cc(Cn4c(=O)ccn(CC(F)(F)F)c4=O)sc23)c1OC1(C)CNC1 [Example 279, 3-((7-(5-Chloro-3-methyl-2-((3-methylazetidin-3-yl)oxy)phenyl)thieno[3,2-b]pyridin-2-yl)methyl)-1-(2,2,2-trifluoroethyl)pyrimidine-2,4(1H,3H)-dione]",< 1000 nM
8,"Cc1cc(Cl)cc(-c2ccnc3cc([C@H](C)N4C(=O)CCC4=O)sc23)c1O[C@@H]1CNC[C@@H]1F [Example 117, 1-((S)-1-(7-(5-Chloro-2-(((3R,4S)-4-fluoropyrrolidin-3-yl)oxy)-3-methylphenyl)thieno[3,2-b]pyridin-2-yl)ethyl)pyrrolidine-2,5-dione]",< 1000 nM
9,"Cc1cc(Cl)cc(-c2ccnc3cc(CO)sc23)c1O[C@@H]1CNC[C@@H]1F [Example 57, (7-(5-Chloro-2-(((3R,4S)-4-fluoropyrrolidin-3-yl)oxy)-3-methylphenyl)thieno[3,2-b]pyridin-2-yl)methanol]",1000 to 10000 nM

# Further lines, results first:
row,IC50,SMILES
1,< 1000 nM,"Cc1cc(Cl)cc(-c2ccnc3cc(Cn4c(=O)ccn(CC(F)(F)F)c4=O)sc23)c1O[C@H]1CNCC[C@H]1C [Example 280, 3-((7-(5-Chloro-3-methyl-2-(((3R,4R)-4-methylpiperidin-3-yl)oxy)phenyl)thieno[3,2-b]pyridin-2-yl)methyl)-1-(2,2,2-trifluoroethyl)pyrimidine-2,4(1H,3H)-dione]"
2,< 1000 nM,"Cc1cc(Cl)cc(-c2ccnc3cc(CN4C(=O)CC(C)(C)C4=O)sc23)c1O[C@H]1CCCNC1 [Example 313, 1-[[7-[5-chloro-3-methyl-2-[[(3S)-3-piperidyl]oxy]phenyl]thieno[3,2-b]pyridin-2-yl]methyl]-3,3-dimethyl-pyrrolidine-2,5-dione; 2,2,2-trifluoroacetic acid]"
3,< 1000 nM,"Cc1cc(Cl)cc(-c2ccnc3cc(Cn4c(=O)ccn(C)c4=O)sc23)c1OC1CNCC(C)(C)C1 (centres unmarked) [Example 6, 3-((7-(5-Chloro-2-((5,5-dimethylpiperidin-3-yl)oxy)-3-methylphenyl)thieno[3,2-b]pyridin-2-yl)methyl)-1-methylpyrimidine-2,4(1H,3H)-dione]"
4,< 1000 nM,"Cc1cc(Cl)cc(-c2ccnc3cc(Cn4c(=O)ccn(CC(F)(F)F)c4=O)sc23)c1O[C@@H]1CNCC[C@H]1C [Example 342, 3-[[7-[5-chloro-3-methyl-2-[[(3S,4R)-4-methyl-3-piperidyl]oxy]phenyl]thieno[3,2-b]pyridin-2-yl]methyl]-1-(2,2,2-trifluoroethyl)pyrimidine-2,4-dione]"

# Same assay, conditions: recombinant full-length USP7 62 pM; ubiquitin-rhodamine 100 nM; 30-minute incubation, 1 hour reaction at room temperature; read-out: Potency (USP7 IC50)
row,SMILES,IC50
1,"Cc1cc(Cl)cc(-c2ccnc3cc(Cn4c(=O)ccn(CC(F)(F)F)c4=O)sc23)c1OC1CCC1 [Example 683, 3-[[7-[5-chloro-2-(cyclobutoxy)-3-methyl-phenyl]thieno[3,2-b]pyridin-2-yl]methyl]-1-(2,2,2-trifluoroethyl)pyrimidine-2,4-dione]",< 1000 nM

# Same assay, conditions: recombinant full-length USP7 62 pM; ubiquitin-rhodamine 100 nM; 30-minute pre-incubation, 1 hour reaction at room temperature; read-out: Potency (USP7 IC50)
row,SMILES,IC50
1,"Cc1cc(Cl)cc(-c2ccnc3cc(Cn4c(=O)ccn(CC(F)(F)F)c4=O)sc23)c1O[C@H]1CCNC[C@H]1C [Example 565, 3-[[7-[5-chloro-3-methyl-2-[[(3R,4S)-3-methyl-4-piperidyl]oxy]phenyl]thieno[3,2-b]pyridin-2-yl]methyl]-1-(2,2,2-trifluoroethyl)pyrimidine-2,4-dione]",< 1000 nM
2,"Cc1cc(Cl)cc(-c2ccnc3cc(Cn4c(=O)ccn(CC(F)(F)F)c4=O)sc23)c1OC1(C)CCCNC1 (centres unmarked) [Example 639, 3-[[7-[5-chloro-3-methyl-2-[(3-methyl-3-piperidyl)oxy]phenyl]thieno[3,2-b]pyridin-2-yl]methyl]-1-(2,2,2-trifluoroethyl)pyrimidine-2,4-dione]",< 1000 nM
3,"Cc1cc(Cl)cc(-c2ccnc3cc(Cn4c(=O)ccn(CC(F)(F)F)c4=O)sc23)c1O[C@@H]1CCCN[C@H]1C [Example 622, 3-[[7-[5-chloro-3-methyl-2-[[(2S,3R)-2-methyl-3-piperidyl]oxy]phenyl]thieno[3,2-b]pyridin-2-yl]methyl]-1-(2,2,2-trifluoroethyl)pyrimidine-2,4-dione; 2,2,2-trifluoroacetic acid]",< 1000 nM
4,"Cc1cc(Cl)cc(-c2ccnc3cc(Cn4c(=O)ccn(C)c4=O)sc23)c1O[C@@H]1CN(C(C)C)C[C@@H]1F [Example 469, 3-[[7-[5-chloro-2-[(3R,4S)-4-fluoro-1-isopropyl-pyrrolidin-3-yl]oxy-3-methyl-phenyl]thieno[3,2-b]pyridin-2-yl]methyl]-1-methyl-pyrimidine-2,4-dione]",< 1000 nM
5,"Cc1cc(Cl)cc(-c2ccnc3cc(Cn4c(=O)ccn(C)c4=O)sc23)c1OC1CCCNCC1F (centres unmarked) [Example 471, 3-[[7-[5-chloro-2-(3-fluoroazepan-4-yl)oxy-3-methyl-phenyl]thieno[3,2-b]pyridin-2-yl]methyl]-1-methyl-pyrimidine-2,4-dione]",< 1000 nM
6,"Cc1cc(Cl)cc(-c2ncnc3cc(Cn4c(=O)ccn(CC(F)(F)F)c4=O)sc23)c1O[C@H]1CC[C@](C)(N)C1 [Example 586, 3-[[4-[2-[(1S,3S)-3-amino-3-methyl-cyclopentoxy]-5-chloro-3-methyl-phenyl]thieno[3,2-d]pyrimidin-6-yl]methyl]-1-(2,2,2-trifluoroethyl)pyrimidine-2,4-dione; 2,2,2-trifluoroacetic acid]",< 1000 nM
